Values joined by “and” are separate entries in the source; they are usually repeats but may differ in a detail not shown here. Identical values can stand only once. Inconclusive results and toxic doses are left out. No stated cut-off is given here; in the data, active means T/C of 150% or more; inactive means T/C below 125%.
System: L1210 leukemia ip in BDF1 mice, survival T/C
Assay: NCI In Vivo Anticancer Drug Screen. Data for tumor model L1210 Leukemia (intraperitoneal) in B6D2F1 (BDF1) mice
Details: endpoint: mean survival time, higher = longer survival
Procedure, shortened: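 Tumor was transplanted into mice, which were then dosed with test compound or vehicle alone. Survival was recorded for each group, and the treated figure was expressed relative to the control figure.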

[1] = dose: 100.0 mg/kg/injection, schedule: Q01DX001 (ip), vehicle: saline
[2] = dose: 200.0 mg/kg/injection, schedule: Q01DX001 (ip), vehicle: saline
[3] = dose: 400.0 mg/kg/injection, schedule: Q01DX001 (ip), vehicle: saline
[4] = dose: 25.0 mg/kg/injection, schedule: Q01DX009 (ip), vehicle: saline
[5] = dose: 25.0 mg/kg/injection, schedule: Q04DX003 (ip), vehicle: saline
[6] = dose: 50.0 mg/kg/injection, schedule: Q01DX009 (ip), vehicle: saline
[7] = dose: 50.0 mg/kg/injection, schedule: Q04DX003 (ip), vehicle: saline
[8] = dose: 100.0 mg/kg/injection, schedule: Q04DX003 (ip), vehicle: saline
[9] = dose: 100.0 mg/kg/injection, schedule: Q04DX003 (ip), vehicle: saline with Tween-80
[10] = dose: 200.0 mg/kg/injection, schedule: Q04DX003 (ip), vehicle: saline with Tween-80
[11] = dose: 400.0 mg/kg/injection, schedule: Q04DX003 (ip), vehicle: saline with Tween-80
[12] = dose: 100.0 mg/kg/injection, schedule: Q01DX009 (ip), vehicle: Klucel (hydroxypropylcellulose) (HPC)
[13] = dose: 100.0 mg/kg/injection, schedule: Q04DX002 (ip), vehicle: Klucel (hydroxypropylcellulose) (HPC)
[14] = dose: 100.0 mg/kg/injection, schedule: Q04DX003 (ip), vehicle: Klucel (hydroxypropylcellulose) (HPC)
[15] = dose: 200.0 mg/kg/injection, schedule: Q01DX009 (ip), vehicle: Klucel (hydroxypropylcellulose) (HPC)
[16] = dose: 200.0 mg/kg/injection, schedule: Q04DX002 (ip), vehicle: Klucel (hydroxypropylcellulose) (HPC)
[17] = dose: 200.0 mg/kg/injection, schedule: Q04DX003 (ip), vehicle: Klucel (hydroxypropylcellulose) (HPC)
[18] = dose: 400.0 mg/kg/injection, schedule: Q01DX009 (ip), vehicle: Klucel (hydroxypropylcellulose) (HPC)
[19] = dose: 400.0 mg/kg/injection, schedule: Q04DX002 (ip), vehicle: Klucel (hydroxypropylcellulose) (HPC)
[20] = dose: 400.0 mg/kg/injection, schedule: Q04DX003 (ip), vehicle: Klucel (hydroxypropylcellulose) (HPC)
[21] = dose: 100.0 mg/kg/injection, schedule: Q01DX001 (ip), vehicle: saline with Tween-80
[22] = dose: 200.0 mg/kg/injection, schedule: Q01DX001 (ip), vehicle: saline with Tween-80
[23] = dose: 400.0 mg/kg/injection, schedule: Q01DX001 (ip), vehicle: saline with Tween-80

Measured: T/C

c1ccc(NCc2csc3ccccc23)cc1
inactive: dose: 100.0 mg/kg/injection, schedule: Q01DX001 (ip), vehicle: carboxymethylcellulose (CMC) 98 % of control | dose: 200.0 mg/kg/injection, schedule: Q01DX001 (ip), vehicle: carboxymethylcellulose (CMC) 88 % of control | dose: 400.0 mg/kg/injection, schedule: Q01DX001 (ip), vehicle: carboxymethylcellulose (CMC) 98 % of control

CCSC(=O)N=Nc1ccc(O)cc1
inactive: dose: 50.0 mg/kg/injection, schedule: Q01DX001 (ip), vehicle: saline 103 % of control | [1] 100 % of control | [2] 94 % of control | [3] 111 % of control

CO[C@H]1C[C@H](O[C@H]2CC[C@]3(C=O)[C@H]4CC[C@]5(C)[C@@H](C6=CC(=O)OC6)CC[C@]5(O)[C@@H]4CC[C@]3(O)C2)O[C@H](C)[C@H]1O[C@@H]1O[C@H](CO[C@@H]2O[C@H](CO)[C@@H](O)[C@H](O)[C@H]2O)[C@@H](O)[C@H](O)[C@H]1O
inactive: dose: 0.25 mg/kg/injection, schedule: Q01DX001 (sc), vehicle: steriod suspending solution 98 % of control | dose: 0.5 mg/kg/injection, schedule: Q01DX001 (sc), vehicle: steriod suspending solution 96 % of control | dose: 1.0 mg/kg/injection, schedule: Q01DX001 (sc), vehicle: steriod suspending solution 98 % of control | dose: 2.0 mg/kg/injection, schedule: Q01DX001 (sc), vehicle: steriod suspending solution 98 % of control

CSc1nc(C)cc(SC(=N)N)n1
inactive: [4] 105 % of control | [5] 98 % of control | [6] 102 % of control | [7] 97 % of control | [8] 100 % of control and 101 % of control

CCCC(C)c1ccc(C(C)=O)cc1 (centres undefined)
inactive: dose: 25.6 mg/kg/injection, schedule: Q04DX002 (ip), vehicle: saline with Tween-80 100 % of control | dose: 64.0 mg/kg/injection, schedule: Q04DX002 (ip), vehicle: saline with Tween-80 92 % of control | dose: 100.0 mg/kg/injection, schedule: Q01DX009 (ip), vehicle: saline with Tween-80 89 % of control | [9] 91 % of control | dose: 160.0 mg/kg/injection, schedule: Q04DX002 (ip), vehicle: saline with Tween-80 88 % of control | dose: 200.0 mg/kg/injection, schedule: Q01DX009 (ip), vehicle: saline with Tween-80 89 % of control | [10] 96 % of control | dose: 400.0 mg/kg/injection, schedule: Q01DX009 (ip), vehicle: saline with Tween-80 90 % of control | dose: 400.0 mg/kg/injection, schedule: Q04DX002 (ip), vehicle: saline with Tween-80 92 % of control | [11] 88 % of control

O=C(/C=C/c1ccccc1)NC(=S)NCc1ccco1
inactive: [12] 94 % of control and 95 % of control | [13] 97 % of control | [14] 95 % of control | [15] 92 % of control and 98 % of control | [16] 101 % of control and 114 % of control | [17] 95 % of control | [18] 94 % of control and 95 % of control | [19] 95 % of control and 102 % of control | [20] 94 % of control

Cc1ccc(S(=O)(=O)Oc2ccc([N+](=O)[O-])cc2)cc1
inactive: [12] 103 % of control | [14] 97 % of control | [15] 97 % of control | [17] 94 % of control | [18] 102 % of control | [20] 100 % of control

CCC1(O)C(=O)OCc2c1ccnc2Cl (centres undefined)
inactive: [7] 105 % of control | [8] 116 % of control | dose: 200.0 mg/kg/injection, schedule: Q04DX003 (ip), vehicle: saline 103 % of control

CC1(C)CN(Cc2ccccc2)C(C)(C)CN1N
inactive: dose: 6.25 mg/kg/injection, schedule: Q01DX009 (ip), vehicle: saline with Tween-80 96 % of control | dose: 12.5 mg/kg/injection, schedule: Q01DX009 (ip), vehicle: saline with Tween-80 100 % of control | dose: 25.0 mg/kg/injection, schedule: Q01DX009 (ip), vehicle: saline with Tween-80 102 % of control | dose: 25.0 mg/kg/injection, schedule: Q04DX003 (ip), vehicle: saline with Tween-80 105 % of control | dose: 50.0 mg/kg/injection, schedule: Q04DX003 (ip), vehicle: saline with Tween-80 102 % of control | [9] 113 % of control

Nc1nc2n(O)cc(C(O)C(O)CO)nc-2c(=O)n1 (centres undefined)
inactive: [1] 100 % of control | [2] 103 % of control | [3] 103 % of control

COc1ccc2nc3cc(Cl)ccc3c(NCCCNCCCl)c2c1
inactive: dose: 10.0 mg/kg/injection, schedule: Q04DX003 (ip), vehicle: Klucel (hydroxypropylcellulose) (HPC) 115 % of control | dose: 20.0 mg/kg/injection, schedule: Q04DX003 (ip), vehicle: Klucel (hydroxypropylcellulose) (HPC) 103 % of control | dose: 40.0 mg/kg/injection, schedule: Q04DX003 (ip), vehicle: Klucel (hydroxypropylcellulose) (HPC) 105 % of control

CC(C)C([NH-])=O.CC(C)C([NH-])=O.[Cl][Pt+2][Cl]
inactive: dose: 12.5 mg/kg/injection, schedule: Q04DX003 (ip), vehicle: saline 116 % of control | [4] 102 % of control | [5] 118 % of control | [6] 89 % of control | [7] 112 % of control | [8] 108 % of control and 118 % of control

Nc1ncnc(N)c1N
inactive: [21] 104 % of control | [22] 105 % of control | [23] 98 % of control

COc1ccc(C2(C)OC(=O)c3ccccc32)c2ccccc12 (centres undefined)
inactive: [21] 94 % of control | [22] 100 % of control | [23] 87 % of control

O=C1OCCN1C(=O)c1ccc(Cl)c(Cl)c1
inactive: dose: 25.0 mg/kg/injection, schedule: Q01DX007 (ip), vehicle: Klucel (hydroxypropylcellulose) (HPC) 97 % of control | dose: 50.0 mg/kg/injection, schedule: Q01DX007 (ip), vehicle: Klucel (hydroxypropylcellulose) (HPC) 95 % of control | dose: 100.0 mg/kg/injection, schedule: Q01DX001 (ip), vehicle: Klucel (hydroxypropylcellulose) (HPC) 100 % of control | dose: 100.0 mg/kg/injection, schedule: Q01DX007 (ip), vehicle: Klucel (hydroxypropylcellulose) (HPC) 100 % of control | [12] 94 % of control | [14] 95 % of control | dose: 200.0 mg/kg/injection, schedule: Q01DX001 (ip), vehicle: Klucel (hydroxypropylcellulose) (HPC) 94 % of control | [17] 100 % of control | dose: 400.0 mg/kg/injection, schedule: Q01DX001 (ip), vehicle: Klucel (hydroxypropylcellulose) (HPC) 96 % of control | [18] 87 % of control | [20] 100 % of control

CC(=O)c1cccc(NC(=O)Oc2ccc(F)cc2Cl)c1
inactive: [12] 97 % of control | [15] 108 % of control

CC(=O)CCCC(C)C1CCC2[C@H]3CC=C4C[C@H](O)CC[C@@]4(C)C3CC[C@@]12C (some centres undefined)
inactive: dose: 50.0 mg/kg/injection, schedule: Q01DX009 (ip), vehicle: Klucel (hydroxypropylcellulose) (HPC) 96 % of control | [12] 100 % of control | [15] 102 % of control

N=C(CNC(=O)OCc1ccccc1)N1CCCC1C(=O)O (centres undefined)
inactive: [9] 100 % of control | [10] 101 % of control | [11] 101 % of control

O=C(Nc1cccc(Cl)c1)OCCOCCOC(=O)Nc1cccc(Cl)c1
inactive: [14] 93 % of control and 104 % of control | [17] 101 % of control and 106 % of control | [20] 97 % of control and 98 % of control

CC1=C2CC(C(C)(C)O)CCC2(C)CC/C1=N\N1CCCCC1 (centres undefined)
inactive: dose: 100.0 mg/kg/injection, schedule: Q04DX003 (sc), vehicle: olive oil, sesame oil, peanut oil 100 % of control | dose: 200.0 mg/kg/injection, schedule: Q04DX003 (sc), vehicle: olive oil, sesame oil, peanut oil 107 % of control | dose: 400.0 mg/kg/injection, schedule: Q04DX003 (sc), vehicle: olive oil, sesame oil, peanut oil 105 % of control

CCOC(=O)N(CCN1C(=O)c2ccccc2C1=O)c1cc(OC)ccc1OC
inactive: [13] 100 % of control | [16] 93 % of control | [19] 89 % of control

CN1CCN(C)P1N1CCCC1
inactive: [1] 89 % of control | [2] 95 % of control | [3] 93 % of control
